In experiment [1] the target is T1, glutathione-S-transferase (GST) tagged LXRbeta LBD (ligand binding domain) (Homo sapiens, UniProt P55055).
T1 construct: purchased Invitrogen pv4658.pps
T1 sequence (P55055 222-460 limits assumed): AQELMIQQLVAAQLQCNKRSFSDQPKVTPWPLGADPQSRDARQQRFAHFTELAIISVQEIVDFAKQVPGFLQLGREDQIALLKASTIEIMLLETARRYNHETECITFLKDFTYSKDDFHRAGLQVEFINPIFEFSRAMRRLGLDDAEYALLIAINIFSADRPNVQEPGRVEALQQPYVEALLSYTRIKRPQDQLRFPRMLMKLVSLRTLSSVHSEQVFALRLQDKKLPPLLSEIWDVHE
As to the kind of experiment: LanthaScreen TR-FRET Liver X Receptor Coactivator Assay, co-activator recruitment to LXRbeta LBD. It counts as biochemical. The procedure, abridged: (§1)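 Readout is time-resolved FRET between a terbium anti-GST antibody bound to the LBD and a fluorescein-tagged coactivator peptide recruited on ligand binding. Plates were incubated at room temperature before reading. Potency (IP) and efficacy (Emax) are referenced to T0901317.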
On the technique in general: TR-FRET usually uses a lanthanide donor and a delayed reading to cut background.

Experiment [2] addresses T2, glutathione-S-transferase (GST) tagged LXRalpha LBD (ligand binding domain) (Homo sapiens, UniProt Q13133).
T2 construct: purchased Invitrogen pv4655
T2 sequence (Q13133 209-447 limits assumed): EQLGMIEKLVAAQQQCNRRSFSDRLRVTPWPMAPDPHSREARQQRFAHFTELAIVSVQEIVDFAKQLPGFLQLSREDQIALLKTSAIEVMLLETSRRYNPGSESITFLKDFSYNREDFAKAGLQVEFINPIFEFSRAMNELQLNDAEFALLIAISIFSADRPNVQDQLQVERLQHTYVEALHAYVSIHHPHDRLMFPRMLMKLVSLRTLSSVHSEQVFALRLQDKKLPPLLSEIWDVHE
Kind of experiment: LanthaScreen TR-FRET Liver X Receptor Coactivator Assay, co-activator recruitment to LXRalpha LBD. It counts as biochemical. Conditions: for EC50 / LXR alpha IP (nM): potency (Inflection Point, IP), co-activator recruitment to LXRalpha LBD, in relation to T0901317; for EC50: read-out: LXR alpha IP. Put shortly:
as §1

[3] abbreviates: efficacy at max dose, in relation to reference dual agonist T0901317, read-out: LXR beta Activity @ max dose (%).
Where [4] appears, read: potency (Inflection Point, IP), co-activator recruitment to LXRbeta LBD, in relation to T0901317, read-out: LXR beta IP.
The mark [5] stands for this setting: efficacy at max dose, in relation to reference dual agonist T0901317, read-out: LXR alpha Activity @ max dose (%).
The mark [6] stands for this setting: efficacy at max dose, in relation to reference dual agonist T0901317.

Read-outs that look alike come from different tables or passages of the source.

As for `CNC(=O)c1ccc(N2CCC(CC3CCN(C(=O)[C@](O)(c4cccc(F)c4)C(F)(F)F)CC3)CC2)nc1Cl` [Example 7-152, 2-chloro-N-methyl-6-[4-({1-[(2R)-3,3,3-trifluoro-2-(3-fluorophenyl)-2-hydroxypropanoyl]piperidin-4-yl}methyl)piperidin-1-yl]pyridine-3-carboxamide], the values for the Emax in experiment [1] (setting [3]) and in experiment [2] (setting [5]) were 127% and 58%, respectively. The EC50 in experiment [1] (setting [4]) came to 6 nM; in experiment [2], 69 nM.
For `O=C(c1ccc(N2CCC(CC3CCN(C(=O)[C@](O)(c4ccccc4)C(F)(F)F)CC3)CC2)cc1Cl)N1CCC[C@H]1CO` [Example 4-3, (2R)-3-(4-{[1-(3-chloro-4-{[(2S)-2-(hydroxy-methyl)pyrrolidin-1-yl]carbonyl}phenyl)piperidin-4-yl]methyl}piperidin-1-yl)-1,1,1-trifluoro-3-oxo-2-phenylpropan-2-ol], in that order: 63%, 30%, 5 nM and 50 nM.
Regarding `CN(C)C(=O)c1ccc(N2CCC(CC3(C)CCN(C(=O)[C@](O)(c4cc(F)cc(Cl)c4)C(F)(F)F)CC3)CC2)cc1Cl` [Example 2-54, 2-chloro-4-[4-({1-[(2R)-2-(3-chloro-5-fluorophenyl)-3,3,3-trifluoro-2-hydroxy-propanoyl]-4-methylpiperidin-4-yl}methyl)piperidin-1-yl]-N,N-dimethyl-benzamide], the Emax in experiment [1] (setting [3]) was found to be 79%; in experiment [2] (setting [5]) it was 23%. In addition, the EC50 in experiment [1] (setting [4]) came out at 4 nM; in experiment [2], 38 nM.
`CO[C@](C(=O)N1CCC(OC2CCN(c3ccc(C(=O)N(C)C)c(Cl)c3)CC2)CC1)(c1ccccc1)C(F)(F)F` [Example 2-20, 2-chloro-N,N-dimethyl-4-[4-({1-[(2S)-3,3,3-trifluoro-2-methoxy-2-phenylpropanoyl]piperidin-4-yl}oxy)piperidin-1-yl]benzamide]: the Emax came to 81% in experiment [1] (setting [3]) and 4% in experiment [2] (setting [5]). Besides, the EC50 in experiment [1] (setting [4]) was determined as 335 nM. For the same compound, the “LXR alpha IP (nM)” value in experiment [2] is reported as “NO IP”.
Turning to `CNC(=O)c1ccc(N2CCC(CC3CCN(C(=O)C(O)(c4cccc(Cl)c4)C(F)(F)F)CC3)CC2)cc1Cl` (stereo not shown) [Example 7-37, 2-chloro-4-[4-({1-[2-(3-chlorophenyl)-3,3,3-trifluoro-2-hydroxypropanoyl]piperidin-4-yl}methyl)piperidin-1-yl]-N-methylbenzamide], the Emax was 90% in experiment [1] (setting [3]) and 27% in experiment [2] (setting [5]). Besides, the EC50 in experiment [1] (setting [4]) worked out at 16 nM; in experiment [2], 340 nM.
On the same counts, the results for `CN(C)C(=O)c1ccc(N2CCC(CC3CCN(C(=O)[C@](O)(c4ccccc4)C(F)(F)C(F)(F)F)CC3)CC2)nc1Cl` [Example 7-60, 2-chloro-N,N-dimethyl-6-[4-({1-[(2R)-3,3,4,4,4-pentafluoro-2-hydroxy-2-phenylbutanoyl]piperidin-4-yl}methyl)piperidin-1-yl]pyridine-3-carboxamide] are 153%, 60%, 7 nM and 148 nM.
As to `CCOc1cccc([C@@](O)(C(=O)N2CCC(CC3CCN(c4ccc(C(=O)N(C)C)c(C)c4)CC3)CC2)C(F)(F)F)c1` [Example 2-151, 4-[4-({1-[(2R)-2-(3-ethoxy-phenyl)-3,3,3-trifluoro-2-hydroxy-propanoyl]piperidin-4-yl}methyl)piperidin-1-yl]-N,N,2-trimethyl-benzamide], the Emax in experiment [1] (setting [3]) was found to be 45%; in experiment [2] (setting [5]), 4%. For the same compound, the EC50 in experiment [1] (setting [4]) was 9 nM. Besides, in experiment [2], the “LXR alpha IP (nM)” value is reported as “NO IP”.
For `CN(C)C(=O)c1ccc(N2CCC(CC3CCN(C(=O)[C@@](O)(c4cccc(C(F)(F)F)c4)C(F)(F)F)CC3)CC2)cc1Cl` [Example 2-33, 2-chloro-N,N-dimethyl-4-{4-[(1-{(2S)-3,3,3-trifluoro-2-hydroxy-2-[3-(trifluoromethyl)phenyl]propanoyl}piperidin-4-yl)methyl]piperidin-1-yl}benzamide], in that order: 75%, 5%, 722 nM and “NO IP”.
On to `CN(C)C(=O)c1ccc(N2CCC(CC3CCN(S(=O)(=O)c4cc(F)cc(C(F)(F)F)c4)CC3)CC2)cc1Cl` [Example 13-15, 2-chloro-4-{4-[(1-{[3-fluoro-5-(trifluoro-methyl)phenyl]-sulfonyl}piperidin-4-yl)methyl]piperidin-1-yl}-N,N-dimethylbenzamide], for which the EC50 in experiment [1] (co-activator recruitment to GST-LXRbeta LBD, TR-FRET, read-out: LXR beta IP (Inflection Point, potency)) is 171 nM. Further, the Emax in experiment [1] (efficacy in relation to reference dual agonist T0901317, read-out: LXR beta Activity @ max dose) is 32%; in experiment [2] (efficacy in relation to reference dual agonist T0901317, read-out: LXR alpha Activity @ max dose), 0%. In experiment [2] (co-activator recruitment to GST-LXRalpha LBD, TR-FRET), the “LXR alpha IP (Inflection Point, potency)” value is recorded as “NO IP”.
`COc1nc(N2CCC(CC3CCN(C(=O)[C@](O)(c4cc(Cl)cc(Cl)c4)C(F)(F)F)CC3)CC2)ccc1C(=O)N(C)C` [Example 7-20, 6-[4-({1-[(2R)-2-(3,5-dichlorophenyl)-3,3,3-trifluoro-2-hydroxypropanoyl]piperidin-4-yl}methyl)piperidin-1-yl]-2-methoxy-N,N-dimethylpyridine-3-carboxamide]: the Emax came out at 79% in experiment [1] (setting [3]) and 29% in experiment [2] (setting [5]). Also, in experiment [1] (setting [4]), the EC50 was 6 nM. For the same compound, in experiment [2], the “LXR alpha IP (nM)” value was “NO IP”.
As to `Cc1cc(N2CCC(CC3CCN(C(=O)[C@](O)(c4cccc(OC(F)(F)F)c4)C(F)(F)F)CC3)CC2)ccc1C(=O)N(C)C` [Example 2-150, N,N,2-trimethyl-4-{4-[(1-{(2R)-3,3,3-trifluoro-2-hydroxy-2-[3-(trifluoromethoxy)phenyl]propanoyl}piperidin-4-yl)methyl]piperidin-1-yl}benzamide], the Emax in experiment [1] (setting [3]) worked out at 56%; in experiment [2] (setting [5]), 15%. In addition, the EC50 in experiment [1] (setting [4]) worked out at 23 nM. The “LXR alpha IP (nM)” value in experiment [2] is “NO IP”.
Turning to `CN(C)C(=O)c1ccc(N2CCC(CC3CCN(C(=O)[C@](O)(c4cccc(OCC(F)(F)F)c4)C(F)(F)F)CC3)CC2)cc1Cl` [Example 2-97, 2-chloro-N,N-dimethyl-4-{4-[(1-{(2R)-3,3,3-trifluoro-2-hydroxy-2-[3-(2,2,2-trifluoroethoxy)phenyl]propanoyl}piperidin-4-yl)methyl]piperidin-1-yl}benzamide], the Emax was determined as 20% in experiment [1] (setting [3]) and 0% in experiment [2] (setting [5]). Besides, the EC50 in experiment [1] (setting [4]) worked out at 40 nM. Besides, the “LXR alpha IP (nM)” value in experiment [2] is reported as “NO IP”.
`Cc1cc(N2CCC(CC3(C)CCN(C(=O)[C@](O)(c4cccc(Cl)c4)C(F)(F)F)CC3)CC2)ccc1C(=O)N(C)C` [Example 2-76, 4-[4-({1-[(2R)-2-(3-chloro-phenyl)-3,3,3-trifluoro-2-hydroxy-propanoyl]-4-methylpiperidin-4-yl}methyl)piperidin-1-yl]-N,N,2-trimethyl-benzamide]: the values for the Emax in experiment [1] (setting [3]) and in experiment [2] (setting [5]) were 46% and 4%, respectively. Also, the EC50 in experiment [1] (setting [4]) was determined as 14 nM. The “LXR alpha IP (nM)” value in experiment [2] was “NO IP”.
On the same counts, the results for `CN(C)C(=O)c1ccc(N2CCC(CC3CCN(C(=O)[C@](O)(c4cccc(N(C)C)c4)C(F)(F)F)CC3)CC2)cc1Cl` [Example 2-98] are 20%, 0%, 8 nM and “NO IP”.
As to `CCc1cccc(C(O)(C(=O)N2CCC(CC3CCN(c4ccc(C(=O)N(C)C)c(Cl)c4)CC3)CC2)C(F)(F)F)c1` (stereo not shown) [Example 2-39, 2-chloro-4-[4-({1-[2-(3-ethylphenyl)-3,3,3-trifluoro-2-hydroxy-propanoyl]piperidin-4-yl}methyl)piperidin-1-yl]-N,N-dimethyl-benzamide], the Emax in experiment [1] (setting [3]) was determined as 30%; in experiment [2] (setting [5]), 2%. The EC50 turned out to be 36 nM in experiment [1] (setting [4]) and 1780 nM in experiment [2].
As to `CN(C)C(=O)c1ccc(N2CCC(CC3CN(C(=O)[C@](O)(c4cccc(OC(F)(F)F)c4)C(F)(F)F)C3)CC2)cc1Cl` [Example 2-68, 2-chloro-N,N-dimethyl-4-{4-[(1-{(2R)-3,3,3-trifluoro-2-hydroxy-2-[3-(trifluoro-methoxy)phenyl]propanoyl}azetidin-3-yl)methyl]piperidin-1-yl}benzamide], the “LXR beta Activity @ max dose (%)” value in experiment [1] (setting [6]) is 63%. For the same compound, the EC50 in experiment [1] (setting [4]) is 22 nM. Moreover, the “LXR alpha Activity @ max dose (%)” value in experiment [2] (setting [6]) came to 16%. Moreover, in experiment [2], the “LXR alpha IP (nM)” value was “NO IP”.
